Assay results from patent publication US20230157996A1, “SMALL-MOLECULE INHIBITOR TARGETING EB VIRUS NUCLEAR ANTIGEN PROTEIN, PREPARATION METHOD AND USE THEREOF” (priority 2020, published 2023).

Tested on: C666-1 cells
Assay: C666-1 cell viability single concentration (50 μM) inhibition rate (Resazurin)
Format: cell-based
Details: 50 μM compound, 72 hours, C666-1 cells; for inhibition at 50 µM: Homo sapiens, C6661, 72 h, read-out: C666-1 cell viability single concentration (50 μM) inhibition rate, Ratio* (Inh %)
Procedure: In order to assess the effect of the EBNA1 inhibitor at the cellular level, the cell proliferation inhibition rate was tested, and the inhibition rate of inhibitor at a specific concentration on the proliferation of Epstein-Barr virus positive cell line C666-1 was detected.
In the test, 100 μL C666-1 cells were inoculated in a transparent 96-well plate, and each well contained 5×10^3 cells. After the cells were cultured in an incubator with 5% carbon dioxide at 37° C. for 24 hours, 10 μL compound at a concentration of 500 μmol/L was added into the cells, so that the final concentration of the compound was 50 μmol/L. Two replicate wells were set for each compound, the wells treated with DMSO were set as control wells (Ctrl), and the wells with cell culture medium only were set as blank wells (blank), and they were treated in the incubator with carbon dioxide at 37° C. for 72 hours. The cell viability was assessed using a redox indicator Resazurin. Specifically, 10 μL Resazurin at a concentration of 600 umol/L was added into each well, and incubated at 37° C. for 3 hours, and a Tecan microplate reader was used to detect the fluorescence signal at an excitation wavelength of 560 nm and an emission wavelength of 590 nm. The formula inh %=1−(F−Fblank)/(FCtrl−Fblank)×100% (where, F is the fluorescence intensity of the compound-added wells, FCtrl and Fblank are the readings of the control wells and blank wells, respectively) was used to calculate the inhibition rate of the compound on the proliferation of C666-1 cells, so as to assess the activity of the compound on Epstein-Barr virus positive cells.

Row | SMILES | inhibition at 50 µM | C666-1 cell viability single concentration (50 μM) inhibition rate, Ratio* (Inh %)
1 | COC(=O)c1cccc(N2CC(Oc3cccc(OC)c3)C2)c1-n1cccc1 [Compound 79, Methyl 3-(3-(3-methoxyphenoxy)azetidin-1-yl)-2-(1H-pyrrol-1-yl)benzoate] | 10 to 30% | –
2 | COc1cccc(OC2CN(c3cccc(C(=O)O)c3-n3cccc3)C2)c1 [Compound 80, 3-(3-(3-methoxyphenoxy)azetidin-1-yl)-2-(1H-pyrrol-1-yl)benzoic acid] | < 10% | –
3 | COC(=O)c1cccc(N2CC(Oc3ccc(C(F)(F)F)cc3)C2)c1-n1cccc1 [Compound 81, Methyl 2-(1H-pyrrol-1-yl)-3-(3-(4-(trifluoromethyl)phenoxy)azetidin-1-yl)benzoate] | 10 to 30% | –
4 | O=C(O)c1cccc(N2CC(Oc3ccc(C(F)(F)F)cc3)C2)c1-n1cccc1 [Compound 82, 2-(1H-pyrrol-1-yl)-3-(3-(4-(trifluoromethyl)phenoxy)azetidin 1-yl)benzoic acid] | < 10% | –
5 | COC(=O)c1cccc(N2CC(Oc3ccc(OC(F)(F)F)cc3)C2)c1-n1cccc1 [Compound 83, Methyl 2-(1H-pyrrol-1-yl)-3-(3-(4-(trifluoromethoxy)phenoxy)azetidin-1-yl)benzoate] | > 50% | –
6 | O=C(O)c1cccc(N2CC(Oc3ccc(OC(F)(F)F)cc3)C2)c1-n1cccc1 [Compound 84, 2-(1H-pyrrol-1-yl)-3-(3-(4-(trifluoromethoxy)phenoxy)azetidin-1-yl)benzoic acid] | < 10% | –
7 | COC(=O)c1cccc(N2CC(Oc3ccc(Cl)nc3)C2)c1-n1cccc1 [Compound 85, Methyl 3-(3-((6-chloropyridin-3-yl)oxy)azetidin-1-yl)-2-(1H-pyrrol-1-yl)benzoate] | > 50% | –
8 | O=C(O)c1cccc(N2CC(Oc3ccc(Cl)nc3)C2)c1-n1cccc1 [Compound 86, 3-(3-((6-chloropyridin-3-yl)oxy)azetidin-1-yl)-2-(1H-pyrrol-1-yl)benzoic acid] | < 10% | –
9 | COC(=O)c1cccc(N2CC(Oc3ccc(C(C)=O)cc3)C2)c1-n1cccc1 [Compound 87, Methyl 3-(3-(4-acetylphenoxy)azetidin-1-yl)-2-(1H-pyrrol-1-yl)benzoate] | > 50% | –
10 | CC(=O)c1ccc(OC2CN(c3cccc(C(=O)O)c3-n3cccc3)C2)cc1 [Compound 88, 3-(3-(4-acetylphenoxy)azetidin-1-yl)-2-(1H-pyrrol-1-yl)benzoic acid] | < 10% | –
11 | COC(=O)c1cccc(N2CC(Oc3ccc(C(C)O)cc3)C2)c1-n1cccc1 (centres unmarked) [Compound 89, Methyl 3-(3-(4-(1-hydroxyethyl)phenoxy)azetidin-1-yl)-2-(1H-pyrrol-1-yl)benzoate] | > 50% | –
12 | CC(O)c1ccc(OC2CN(c3cccc(C(=O)O)c3-n3cccc3)C2)cc1 (centres unmarked) [Compound 90, 3-(3-(4-(1-hydroxyethyl)phenoxy)azetidin-1-yl)-2-(1H-pyrrol-1-yl)benzoic acid] | < 10% | –
13 | COC(=O)c1cccc(N2CC(Oc3cc(Cl)nc(Cl)c3)C2)c1-n1cccc1 [Compound 91, Methyl 3-(3-((2,6-dichloropyridin-4-yl)oxy)azetidin-1-yl)-2-(1H-pyrrol-1-yl)benzoate] | < 10% | –
14 | O=C(O)c1cccc(N2CC(Oc3cc(Cl)nc(Cl)c3)C2)c1-n1cccc1 [Compound 92, 3-(3-((2,6-dichloropyridin-4-yl)oxy)azetidin-1-yl)-2-(1H-pyrrol-1-yl)benzoic acid] | < 10% | –
15 | COC(=O)c1cccc(N2CC(Oc3ccc(C#N)cc3)C2)c1-n1cccc1 [Compound 93, Methyl 3-(3-(4-cyanophenoxy)azetidin-1-yl)-2-(1H-pyrrol-1-yl)benzoate] | 30 to 50% | –
16 | N#Cc1ccc(OC2CN(c3cccc(C(=O)O)c3-n3cccc3)C2)cc1 [Compound 94, 3-(3-(4-cyanophenoxy)azetidin-1-yl)-2-(1H-pyrrol-1-yl)benzoic acid] | < 10% | –
17 | COC(=O)c1cccc(N2CC(Oc3ccc(Cl)cc3)C2)c1-n1cccc1 [Compound 95, Methyl 3-(3-(4-chlorophenoxy)azetidin-1-yl)-2-(1H-pyrrol-1-yl)benzoate] | < 10% | –
18 | O=C(O)c1cccc(N2CC(Oc3ccc(Cl)cc3)C2)c1-n1cccc1 [Compound 96, 3-(3-(4-chlorophenoxy)azetidin-1-yl)-2-(1H-pyrrol-1-yl)benzoic acid] | < 10% | –
19 | COC(=O)c1cccc(N2CC(Oc3ccc(N(C)C)cc3)C2)c1-n1cccc1 [Example 97, Methyl 3-(3-(4-(dimethylamino)phenoxy)azetidin-1-yl)-2-(1H-pyrrol-1-yl)benzoate] | 10 to 30% | –

Row | SMILES | inhibition at 50 µM | C666-1 cell viability single concentration (50 μM) inhibition rate, Ratio* (Inh %)
20 | CN(C)c1ccc(OC2CN(c3cccc(C(=O)O)c3-n3cccc3)C2)cc1 [Example 98, 3-(3-(4-(dimethylamino)phenoxy)azetidin-1-yl)-2-(1H-pyrrol-1-yl)benzoic acid] | 10 to 30% | –
21 | CCOc1ccc(OC2CN(c3cccc(C(=O)OC)c3-n3cccc3)C2)cc1 [Example 99, Methyl 3-(3-(4-ethoxyphenoxy)azetidin-1-yl)-2-(1H-pyrrol-1-yl)benzoate] | < 10% | –
22 | CCOc1ccc(OC2CN(c3cccc(C(=O)O)c3-n3cccc3)C2)cc1 [Example 100, 3-(3-(4-ethoxyphenoxy)azetidin-1-yl)-2-(1H-pyrrol-1-yl)benzoic acid] | < 10% | –
23 | COC(=O)c1cccc(N2CC(Oc3ccccc3)C2)c1-n1cccc1 [Example 101, Methyl 3-(3-phenoxyazetidin-1-yl)-2-(1H-pyrrol-1-yl)benzoate] | – | +++ (30%-50% +++)
24 | O=C(O)c1cccc(N2CC(Oc3ccccc3)C2)c1-n1cccc1 [Example 102, 3-(3-phenoxyazetidin-1-yl)-2-(1H-pyrrol-1-yl)benzoic acid] | < 10% | –
25 | COC(=O)c1cccc(N2CC(Oc3ccc4cc[nH]c4c3)C2)c1-n1cccc1 [Example 103, Methyl 3-(3-((1H-indol-6-yl)oxy)azetidin-1-yl)-2-(1H-pyrrol-1-yl)benzoate] | 10 to 30% | –
26 | O=C(O)c1cccc(N2CC(Oc3ccc4cc[nH]c4c3)C2)c1-n1cccc1 [Example 104, 3-(3-((1H-indol-6-yl)oxy)azetidin-1-yl)-2-(1H-pyrrol-1-yl)benzoic acid] | < 10% | –
27 | CCCOc1ccc(OC2CN(c3cccc(C(=O)OC)c3-n3cccc3)C2)cc1 [Example 105, Methyl 3-(3-(4-propoxyphenoxy)azetidin-1-yl)-2-(1H-pyrrol-1-yl)benzoate] | < 10% | –
28 | CCCOc1ccc(OC2CN(c3cccc(C(=O)O)c3-n3cccc3)C2)cc1 [Example 106, 3-(3-(4-propoxyphenoxy)azetidin-1-yl)-2-(1H-pyrrol-1-yl)benzoic acid] | < 10% | –
29 | CCCCOc1ccc(OC2CN(c3cccc(C(=O)OC)c3-n3cccc3)C2)cc1 [Example 107, Methyl 3-(3-(4-butoxyphenoxy)azetidin-1-yl)-2-(1H-pyrrol-1-yl)benzoate] | < 10% | –
30 | CCCCOc1ccc(OC2CN(c3cccc(C(=O)O)c3-n3cccc3)C2)cc1 [Example 108, 3-(3-(4-butoxyphenoxy)azetidin-1-yl)-2-(1H-pyrrol-1-yl)benzoic acid] | < 10% | –
31 | COC(=O)c1cccc(N2CC(Oc3ccc(OC(C)C)cc3)C2)c1-n1cccc1 [Example 109, Methyl 3-(3-(4-isopropoxyphenoxy)azetidin-1-yl)-2-(1H-pyrrol-1-yl)benzoate] | < 10% | –
32 | CC(C)Oc1ccc(OC2CN(c3cccc(C(=O)O)c3-n3cccc3)C2)cc1 [Example 110, 3-(3-(4-isopropoxyphenoxy)azetidin-1-yl)-2-(1H-pyrrol-1-yl)benzoic acid] | < 10% | –
33 | COC(=O)c1cccc(N2CC(Oc3ccc(Oc4ccccc4)cc3)C2)c1-n1cccc1 [Example 111, Methyl 3-(3-(4-phenoxyphenoxy)azetidin-1-yl)-2-(1H-pyrrol-1-yl)benzoate] | < 10% | –
34 | O=C(O)c1cccc(N2CC(Oc3ccc(Oc4ccccc4)cc3)C2)c1-n1cccc1 [Example 112, 3-(3-(4-phenoxyphenoxy)azetidin-1-yl)-2-(1H-pyrrol-1-yl)benzoic acid] | < 10% | –
35 | COC(=O)c1cccc(N2CC(Oc3ccc(COC4CCOCC4)cc3)C2)c1-n1cccc1 [Example 113, Methyl 2-(1H-pyrrol-1-yl)-3-(3-(4-(((tetrahydro-2H-pyran-4-yl)oxy)methyl)phenoxy)azetidin-1-yl)benzoate] | > 50% | –
36 | COC(=O)c1cccc(N2CC(Oc3ccc(COc4ccccc4)cc3)C2)c1-n1cccc1 [Example 114, Methyl 3-(3-(4-(phenoxymethyl)phenoxy)azetidin-1-yl)-2-(1H-pyrrol-1-yl)benzoate] | 10 to 30% | –
37 | O=C(O)c1cccc(N2CC(Oc3ccc(COc4ccccc4)cc3)C2)c1-n1cccc1 [Example 115, 3-(3-(4-(phenoxymethyl)phenoxy)azetidin-1-yl)-2-(1H-pyrrol-1-yl)benzoic acid] | < 10% | –
38 | O=C([O-])c1cccc(N2CC(Oc3ccc([N+](=O)[O-])cc3)C2)c1-n1cccc1.[Na+] [Example 116, Sodium 3-(3-(4-nitrophenoxy)azetidin-1-yl)-2-(1H-pyrrol-1-yl)benzoate] | – | + (*Inh %: <10% +)
